In brackets after ≈: the same amount, converted by molar mass. Entries after “also recorded” stand apart in the source; their conditions may differ. Where two headings read alike, the source gives them in different places.

A short description of data set [1]: Solubility of cladribine in water at various HPCD concentrations (HPLC). The class given is physicochemical. The following applies: no HPCD, temperature not stated, read-out: normal solubility of cladribine in water.
Data set [2] in a line: Stability of cladribine with/without HPCD at pH 1.4 and 8.2 at room temperature. The class given is physicochemical.
Protocol: The effect of the HPCD on the stability of cladribine at pH 1.4 and 8.2 at room temperature was measured.
For data set [3] the following is noted: in words, cited from earlier work.
Data set [4] in a line: Solubility of cladribine in water at various HPCD concentrations (HPLC). The format is physicochemical. The following applies: for solubility at 120 h: pH 7.3. The procedure:
The cylodextrin and the buffer salts were solved in Water for Injection and an excess of Cladribine was added. The solution was shaken during 5 days at room temperature and 4° C. The solution was filtered through a 0.2 μm filter.
The solubility of cladribine in water at various concentrations of 2-Hydroxypropyl-β-Cyclodextrin (HPCD) was measured by high performance liquid chromatography. […] Table 2 sets forth the results of the solubility measurements for the HPCD/cladribine formulation of Example 1.

In the case of `Nc1nc(Cl)nc2c1ncn2[C@H]1C[C@H](O)[C@@H](CO)O1` [Cladribine, 2-chloro-2'-deoxyadenosine], the solubility in data set [1] is around 4520 µg/mL (≈ 15.8 mM). In addition, in data set [2] (combined with cyclodextrins, in words), the “stability against hydrolysis when combined with cyclodextrins” value is recorded as “significantly more stable”. The “stability at lower pH when combined with cyclodextrins like HPCD” value in data set [2] (lower pH, with cyclodextrins like HPCD) is reported as “significantly more stable”. The “stability at pH 1.4” value in data set [2] (pH 1.4, room temperature, with HPCD versus cladribine solution without HPCD (FIG. 1)) is “significantly enhanced”. Further, the stability in acid result in data set [3] (acidic environment of the gastro-intestinal system) is recorded as “acid labile”. In addition, the “stability in simple saline solutions” value in data set [3] (simple saline) is “limited stability”. The solubility in water entry in data set [3] (water) is on record as “slightly soluble”. In addition, the solubility at 120 h in data set [4] (10% hp-β-cd in buffered water, pH 7.3, 4° C., 10% HP-β-CD (W/W), read-out: Solubility of Cladribine at 4° C.) was 4.93 mg/mL (≈ 17.3 mM); in data set [4] (10% hp-β-cd in buffered water, pH 7.3, RT, 10% HP-β-CD (W/W), read-out: Solubility of Cladribine (mg/ml) at RT), 6.4 mg/mL (≈ 22.4 mM); in data set [4] (15% hp-β-cd in buffered water, pH 7.3, 4° C., 15% HP-β-CD (W/W), read-out: Solubility of Cladribine at 4° C.), 6.51 mg/mL (≈ 22.8 mM); in data set [4] (15% hp-β-cd in buffered water, pH 7.3, RT, 15% HP-β-CD (W/W), read-out: Solubility of Cladribine (mg/ml) at RT), 8.47 mg/mL (≈ 29.6 mM); in data set [4] (20% hp-β-cd in buffered water, pH 7.3, 4° C., 20% HP-β-CD (W/W), read-out: Solubility of Cladribine at 4° C.), 8.27 mg/mL (≈ 28.9 mM); in data set [4] (20% hp-β-cd in buffered water, pH 7.3, RT, 20% HP-β-CD (W/W), read-out: Solubility of Cladribine (mg/ml) at RT), 10.5 mg/mL (≈ 36.7 mM). Further, the solubility at 120 h in data set [4] (25% hp-β-cd in buffered water, pH 7.3, 4° C., 25% HP-β-CD (W/W), read-out: Solubility of Cladribine at 4° C.) worked out at 9.91 mg/mL (≈ 34.7 mM); in data set [4] (25% hp-β-cd in buffered water, pH 7.3, RT, 25% HP-β-CD (W/W), read-out: Solubility of Cladribine (mg/ml) at RT), 12.4 mg/mL (≈ 43.3 mM). In addition, the “solubility of cladribine in water through use of the cyclodextrin formulation” value in data set [4] (with cyclodextrin, in words) is “significantly enhanced; also recorded: greatly increased”.

These data come from US6194395A, “Cyclodextrin cladribine formulations” (Orthro-McNeil Pharmaceutical, Inc., priority 1999, dated 2001).
